Results published in ChEMBL document CHEMBL1201862, “PubChem BioAssay data set” (2004).
Activity calls are given as the source filed them.

What was measured:
[1] = NIH-3T3 fibroblast cytotoxicity, dose response, cytotoxicity control, cell-based, fluorescence, Alamar Blue, secondary assay (AID 2327); type: functional;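 note: NIH-3T3 mouse fibroblasts cultured with fluconazole at 8 µg/mL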
[2] = molecular target: T1, RNA-binding protein pos-1 (Caenorhabditis elegans, UniProt G5EF15); assay: inhibitors of POS-1/mex-3 RNA binding, dose response, biochemical, fluorescence polarization (AID 1964);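 note: purified POS-1 fused to maltose binding protein made in E. coli; potency of compounds blocking POS-1 binding to fluorescent RNA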
T1 sequence (G5EF15 whole entry): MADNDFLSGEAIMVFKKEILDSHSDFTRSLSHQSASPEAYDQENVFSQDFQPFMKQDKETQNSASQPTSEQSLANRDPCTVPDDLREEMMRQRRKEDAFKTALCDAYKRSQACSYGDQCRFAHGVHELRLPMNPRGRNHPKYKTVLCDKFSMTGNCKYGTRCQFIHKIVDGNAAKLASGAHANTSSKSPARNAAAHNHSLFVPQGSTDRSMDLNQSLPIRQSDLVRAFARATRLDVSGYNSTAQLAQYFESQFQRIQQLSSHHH

[3] = molecular target: Peroxisome proliferator-activated receptor gamma/Nuclear receptor coactivator 1 (Homo sapiens, UniProt P37231); assay: (§1) TR-FRET dose response biochemical High Throughput Screening assay for agonists of the steroid receptor coactivator 1 (SRC-1) recruitment by the peroxisome proliferator-activated receptor gamma (PPAR gamma): non-selective agonists. [Related pubchem assays (depositor defined):AID1300, AID1808, AID504735, AID631]; type: protein assay
[4] = molecular target: Peroxisome proliferator-activated receptor gamma/Nuclear receptor coactivator 3 (Homo sapiens, UniProt P37231); assay: as §1, with “3 (SRC-3)” for “1 (SRC-1)”, “assays: 1301 (Confirmation screen.), 1048 (Primary screen.)]” for “assays (depositor defined):AID1300, AID1808, AID504735, AID631]”; type: functional
[5] = molecular target: T2, Zinc finger protein mex-5 (Caenorhabditis elegans, UniProt Q9XUB2); assay: MEX-5/TCR-2 RNA interaction inhibitors, dose response, biochemical, C. elegans, fluorescence polarization (AID 1960)
T2 sequence (Q9XUB2 whole entry): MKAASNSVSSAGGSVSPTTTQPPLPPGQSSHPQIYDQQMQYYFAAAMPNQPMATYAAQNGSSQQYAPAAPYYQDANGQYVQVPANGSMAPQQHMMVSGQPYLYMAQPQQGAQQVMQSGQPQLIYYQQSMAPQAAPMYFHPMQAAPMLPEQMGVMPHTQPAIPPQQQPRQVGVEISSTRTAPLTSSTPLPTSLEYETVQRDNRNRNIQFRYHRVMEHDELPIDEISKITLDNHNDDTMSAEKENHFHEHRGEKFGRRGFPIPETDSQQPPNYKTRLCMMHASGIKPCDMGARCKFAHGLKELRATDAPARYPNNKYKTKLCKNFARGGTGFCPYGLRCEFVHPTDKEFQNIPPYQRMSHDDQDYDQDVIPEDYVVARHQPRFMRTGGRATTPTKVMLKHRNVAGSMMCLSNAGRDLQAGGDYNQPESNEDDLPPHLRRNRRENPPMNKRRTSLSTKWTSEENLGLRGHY

[6] = C. albicans growth with fluconazole, confirmation, fluorescence, retest (AID 2467); type: functional, cell-based
[7] = molecular target: Peroxisome proliferator-activated receptor gamma/Nuclear receptor coactivator 2 (Homo sapiens, UniProt P37231); assay: TR-FRET dose response biochemical High Throughput Screening assay for agonists of the steroid receptor coactivator 2 (SRC-2) recruitment by the peroxisome proliferator-activated receptor gamma (PPAR gamma): non-selective agonists. [Related pubchem assays: 1297, 1032 ]; type: functional
ORF 73 = ORF 73 (Human herpesvirus 8, UniProt O40947); assay: inhibitors of C-LANA binding to LBS DNA, dose response, biochemical, fluorescence polarization, cherry-picked samples (AID 504725); design: species or system Human gammaherpesvirus 8;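 note: fluorescence polarization of a labeled DNA duplex reporting LANA DNA binding; potency is for inhibitors that block LANA binding to the DNA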
[8] = molecular target: UDP-galactopyranose mutase (Mycobacterium tuberculosis, UniProt P9WIQ1); assay: Inhibitors of Mycobacterium tuberculosis UDP-galactopyranose mutase (UGM) enzyme Measured in Biochemical System Using Plate Reader - 2105-02_Inhibitor_Dose_CherryPick_Activity. [Related pubchem assays (depositor defined):AID504439]
Keap1/Nrf2 = Keap1/Nrf2 (Homo sapiens, UniProt Q14145); assay: Keap1-Nrf2 protein-protein interaction inhibitors, dose response, biochemical, fluorescence polarization, cherry-picked samples (AID 588683)
[9] = molecular target: Intestinal-type alkaline phosphatase (Homo sapiens, UniProt P09923); assay: Dose Response confirmation of uHTS hits from a small molecule inhibitors of human intestinal alkaline phosphatase via a luminescent assay. [Related pubchem assays (depositor defined):AID2544, AID2574]; type: functional
[10] = molecular target: T3, Corticotropin-releasing factor receptor 2/Corticotropin-releasing factor-binding protein (Homo sapiens, UniProt P24387+Q13324); assay: activators of CRF receptor 2 with binding protein – uHTS hits, confirmation (AID 602473); type: functional; details: read-out: EC50_Mean
T3 sequence (Q13324 whole entry): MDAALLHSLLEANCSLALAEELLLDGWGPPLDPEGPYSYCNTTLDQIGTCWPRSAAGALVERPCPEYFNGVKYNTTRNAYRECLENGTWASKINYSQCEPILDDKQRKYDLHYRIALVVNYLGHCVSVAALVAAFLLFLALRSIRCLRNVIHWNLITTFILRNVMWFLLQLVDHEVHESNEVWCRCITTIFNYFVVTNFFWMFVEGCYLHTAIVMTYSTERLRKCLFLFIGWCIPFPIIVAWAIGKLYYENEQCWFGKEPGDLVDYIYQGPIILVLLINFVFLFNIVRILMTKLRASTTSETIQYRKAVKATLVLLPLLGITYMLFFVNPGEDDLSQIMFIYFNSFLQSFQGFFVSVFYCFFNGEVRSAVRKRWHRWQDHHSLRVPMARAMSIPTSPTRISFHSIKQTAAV
T3 sequence (P24387 whole entry): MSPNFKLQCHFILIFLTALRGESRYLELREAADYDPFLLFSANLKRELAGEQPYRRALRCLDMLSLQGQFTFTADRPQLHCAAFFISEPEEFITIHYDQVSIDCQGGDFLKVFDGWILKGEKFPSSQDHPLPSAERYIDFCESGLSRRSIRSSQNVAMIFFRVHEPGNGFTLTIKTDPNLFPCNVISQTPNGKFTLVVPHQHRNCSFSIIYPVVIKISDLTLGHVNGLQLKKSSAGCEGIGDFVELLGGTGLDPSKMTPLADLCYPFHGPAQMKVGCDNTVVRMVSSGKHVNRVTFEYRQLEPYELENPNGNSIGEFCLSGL

[11] = Luminescence Cell-Based Dose Confirmation HTS to Identify Activators of 5'UTR Stem-Loop Driven Alpha-Synuclein mRNA Translation in H4 Neuroglioblastoma Cells. [Related pubchem assays: 1829 (Project Summary), 1814 (Primary HTS)]; type: functional
[12] = Luminescence Cell-Based Dose Response HTS to Identify Activators of Luciferase Translation or Activity in H4 […] Cells. [Related pubchem assays: 1829 (Project Summary), 1814 (Primary HTS)]; type: functional
H4 = assay: Luminescence Cell-Based Dose Response HTS to Identify Activators of 5'UTR Stem-Loop Driven Prion Protein mRNA Translation in H4 Neuroglioblastoma Cells. [Related pubchem assays: 1829 (Project Summary), 1814 (Primary HTS)]; type: functional; details: Homo sapiens
T-cell = assay: inhibitors of CD8+ T cell–vesicle binding, dose response, mouse 2C CD8+ T cells, flow cytometry (AID 485284); type: functional
Caspase-3 = molecular target: T4, Caspase-3 (Homo sapiens, UniProt P42574); assay: procaspase-3 activation potency of dual hits, dose response, counter-screen for dual procaspase-3/7 activator project, biochemical, absorbance, PC-3 D3A mutant (AID 504328)
T4 sequence (P42574 whole entry): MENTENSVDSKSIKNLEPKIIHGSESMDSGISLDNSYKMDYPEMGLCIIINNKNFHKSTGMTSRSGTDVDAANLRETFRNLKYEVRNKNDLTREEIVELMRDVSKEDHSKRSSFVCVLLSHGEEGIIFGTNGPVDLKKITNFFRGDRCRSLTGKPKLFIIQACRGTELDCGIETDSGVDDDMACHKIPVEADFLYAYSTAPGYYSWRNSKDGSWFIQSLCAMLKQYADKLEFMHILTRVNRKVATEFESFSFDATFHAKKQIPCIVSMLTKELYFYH

Caspase-7 = Caspase-7 (Homo sapiens, UniProt P55210); assay: procaspase-7 activators, dose response, dual procaspase-3/-7 activator project, biochemical, absorbance, human (AID 504330)
[13] = cytotoxicity in NIH/3T3 mouse fibroblasts, dose response, cytotoxicity control, cell-based, mouse embryonic fibroblasts, dry powder, set 2 (AID 493247); type: functional; details: Fibroblast
Trypanosoma cruzi = assay: growth inhibition of intracellular Trypanosoma cruzi, dose response, cell-based, plate reader, dry powder, set 3 (AID 493197); type: functional
[14] = molecular target: Voltage-dependent T-type calcium channel subunit alpha-1H (Homo sapiens, UniProt O95180); assay: Cav3.2 T-type channel inhibitors, cell-based, synthetic library set 1, calcium flux (AID 493022); type: functional
Coagulation factor XII = molecular target: T5, Coagulation factor XII (Homo sapiens, UniProt P00748); assay: FXIIa inhibitor potency, concentration-response, biochemical (AID 716); type: functional
T5 sequence (P00748 whole entry): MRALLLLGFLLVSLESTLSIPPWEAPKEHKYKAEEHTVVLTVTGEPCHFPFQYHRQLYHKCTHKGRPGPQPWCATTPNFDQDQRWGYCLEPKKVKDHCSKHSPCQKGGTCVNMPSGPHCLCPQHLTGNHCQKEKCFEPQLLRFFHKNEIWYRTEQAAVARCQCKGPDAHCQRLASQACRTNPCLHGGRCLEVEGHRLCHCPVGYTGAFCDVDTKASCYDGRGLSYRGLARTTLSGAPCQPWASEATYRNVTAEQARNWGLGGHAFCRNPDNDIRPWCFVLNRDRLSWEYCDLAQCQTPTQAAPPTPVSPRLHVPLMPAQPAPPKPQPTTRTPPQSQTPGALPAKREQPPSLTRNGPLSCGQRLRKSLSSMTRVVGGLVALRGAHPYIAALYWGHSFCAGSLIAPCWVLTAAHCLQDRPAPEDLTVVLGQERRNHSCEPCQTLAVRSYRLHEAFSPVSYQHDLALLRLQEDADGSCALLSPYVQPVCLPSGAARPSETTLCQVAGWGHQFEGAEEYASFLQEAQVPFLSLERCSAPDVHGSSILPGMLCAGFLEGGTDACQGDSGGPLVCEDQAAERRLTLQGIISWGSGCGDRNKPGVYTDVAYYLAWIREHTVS

[15] = molecular target: Potassium voltage-gated channel subfamily KQT member 2 (Rattus norvegicus, UniProt O88943); assay: retigabine-insensitive KCNQ2 potentiators, concentration-response, dose response, cell-based, retigabine-insensitive compounds (AID 2654); type: functional
[16] = molecular target: T6, Kappa-type opioid receptor (Homo sapiens, UniProt P41145); assay: KOR agonist analogs, arrestin-GFP redistribution, SAR follow-up, imaging, image-based, set 3 (AID 488833); type: functional
Mu-type opioid receptor = Mu-type opioid receptor (Homo sapiens, UniProt P35372); assay: SAR Analysis of Agonists of the MOR Receptor using an Image-Based Assay - Set 3. [Related pubchem assays (depositor defined):AID1777, AID1785, AID1786, AID1966, AID2133, AID2136, AID2284, AID2285, AID2352]; type: functional
[17] = molecular target: Delta-type opioid receptor (Homo sapiens, UniProt P41143); assay: SAR Analysis of Agonists of the DOR Receptor using an Image-Based Assay - Set 3. [Related pubchem assays (depositor defined):AID1777, AID1786]; type: functional
[18] = molecular target: T6, Kappa-type opioid receptor; assay: SAR analysis of small molecule agonists of the kappa opioid receptor via a luminescent beta-arrestin assay - Set 3. [Related pubchem assays (depositor defined):AID1777, AID1785, AID1786, AID1966, AID2133, AID2136, AID2284, AID2500]; type: functional
[19] = molecular target: Eukaryotic translation initiation factor 4H (Homo sapiens, UniProt Q15056); assay: eIF4H inhibition in translation initiation, SAR follow-up (AID 435011); type: functional
[20] = molecular target: Polyadenylate-binding protein 1 (Homo sapiens, UniProt P11940); assay: PABP inhibition in translation initiation, SAR follow-up (AID 435018); type: functional

T6 sequence (P41145 whole entry): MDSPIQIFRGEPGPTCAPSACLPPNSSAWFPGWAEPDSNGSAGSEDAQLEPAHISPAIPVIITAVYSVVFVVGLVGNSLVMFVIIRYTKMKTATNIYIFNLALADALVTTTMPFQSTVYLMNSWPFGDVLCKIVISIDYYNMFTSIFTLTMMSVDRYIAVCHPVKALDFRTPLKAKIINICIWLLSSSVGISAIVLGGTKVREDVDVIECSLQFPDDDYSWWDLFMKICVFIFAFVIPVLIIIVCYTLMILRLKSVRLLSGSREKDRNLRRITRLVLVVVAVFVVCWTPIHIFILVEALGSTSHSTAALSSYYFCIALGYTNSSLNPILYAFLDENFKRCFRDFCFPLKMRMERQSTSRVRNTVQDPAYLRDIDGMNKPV
ORF 73, sequence (O40947 whole entry): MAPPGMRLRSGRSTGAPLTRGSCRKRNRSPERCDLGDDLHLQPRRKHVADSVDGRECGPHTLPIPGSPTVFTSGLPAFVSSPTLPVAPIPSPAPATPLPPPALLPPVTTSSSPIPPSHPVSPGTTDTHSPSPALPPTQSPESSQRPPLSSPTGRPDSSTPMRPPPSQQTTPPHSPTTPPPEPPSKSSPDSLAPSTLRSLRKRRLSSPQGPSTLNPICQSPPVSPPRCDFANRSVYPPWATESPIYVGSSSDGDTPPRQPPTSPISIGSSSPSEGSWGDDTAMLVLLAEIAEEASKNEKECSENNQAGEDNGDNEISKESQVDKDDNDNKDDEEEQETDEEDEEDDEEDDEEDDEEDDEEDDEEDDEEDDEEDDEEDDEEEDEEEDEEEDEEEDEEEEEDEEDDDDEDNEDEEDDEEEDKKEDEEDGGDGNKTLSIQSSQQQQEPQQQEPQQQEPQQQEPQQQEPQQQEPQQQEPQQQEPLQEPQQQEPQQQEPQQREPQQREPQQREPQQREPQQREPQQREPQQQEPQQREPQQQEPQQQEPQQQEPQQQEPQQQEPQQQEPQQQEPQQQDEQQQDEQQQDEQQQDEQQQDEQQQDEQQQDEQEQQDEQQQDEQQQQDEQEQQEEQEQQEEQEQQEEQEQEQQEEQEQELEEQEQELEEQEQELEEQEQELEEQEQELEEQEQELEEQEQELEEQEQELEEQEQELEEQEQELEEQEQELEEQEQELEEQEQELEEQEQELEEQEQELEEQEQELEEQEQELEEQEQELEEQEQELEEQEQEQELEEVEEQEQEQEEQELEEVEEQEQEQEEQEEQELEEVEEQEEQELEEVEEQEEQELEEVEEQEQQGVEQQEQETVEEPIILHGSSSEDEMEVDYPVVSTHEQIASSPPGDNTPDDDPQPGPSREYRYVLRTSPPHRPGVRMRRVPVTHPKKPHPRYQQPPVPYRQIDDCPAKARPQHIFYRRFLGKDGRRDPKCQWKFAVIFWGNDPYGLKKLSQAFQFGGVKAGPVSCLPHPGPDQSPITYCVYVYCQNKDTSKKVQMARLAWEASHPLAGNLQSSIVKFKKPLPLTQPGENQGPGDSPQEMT
Intestinal-type alkaline phosphatase, sequence (P09923 whole entry): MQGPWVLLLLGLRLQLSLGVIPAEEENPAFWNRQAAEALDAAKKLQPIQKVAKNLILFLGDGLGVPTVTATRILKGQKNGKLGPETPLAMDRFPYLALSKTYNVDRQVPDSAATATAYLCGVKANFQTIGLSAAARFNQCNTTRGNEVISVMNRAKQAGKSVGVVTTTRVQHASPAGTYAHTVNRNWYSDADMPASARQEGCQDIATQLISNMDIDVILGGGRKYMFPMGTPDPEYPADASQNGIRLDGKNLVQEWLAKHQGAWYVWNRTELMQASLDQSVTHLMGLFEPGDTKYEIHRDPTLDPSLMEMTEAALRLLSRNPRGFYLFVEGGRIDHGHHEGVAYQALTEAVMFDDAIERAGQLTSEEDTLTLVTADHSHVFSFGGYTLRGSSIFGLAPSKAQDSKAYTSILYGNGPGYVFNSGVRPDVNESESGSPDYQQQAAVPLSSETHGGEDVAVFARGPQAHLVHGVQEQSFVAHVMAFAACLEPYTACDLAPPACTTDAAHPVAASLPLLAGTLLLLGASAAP
UDP-galactopyranose mutase, sequence (P9WIQ1 whole entry): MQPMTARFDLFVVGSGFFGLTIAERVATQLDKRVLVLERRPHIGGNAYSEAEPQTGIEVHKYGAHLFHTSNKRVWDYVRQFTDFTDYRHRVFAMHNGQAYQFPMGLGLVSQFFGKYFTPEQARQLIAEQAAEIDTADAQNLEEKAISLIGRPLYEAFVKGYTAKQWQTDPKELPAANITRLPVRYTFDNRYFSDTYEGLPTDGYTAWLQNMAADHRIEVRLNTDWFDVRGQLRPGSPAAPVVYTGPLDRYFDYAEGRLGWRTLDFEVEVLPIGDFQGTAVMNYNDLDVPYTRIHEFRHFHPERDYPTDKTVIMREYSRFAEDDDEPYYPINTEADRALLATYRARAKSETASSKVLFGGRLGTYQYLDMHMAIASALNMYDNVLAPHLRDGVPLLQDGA
Voltage-dependent T-type calcium channel subunit alpha-1H, sequence (O95180 whole entry): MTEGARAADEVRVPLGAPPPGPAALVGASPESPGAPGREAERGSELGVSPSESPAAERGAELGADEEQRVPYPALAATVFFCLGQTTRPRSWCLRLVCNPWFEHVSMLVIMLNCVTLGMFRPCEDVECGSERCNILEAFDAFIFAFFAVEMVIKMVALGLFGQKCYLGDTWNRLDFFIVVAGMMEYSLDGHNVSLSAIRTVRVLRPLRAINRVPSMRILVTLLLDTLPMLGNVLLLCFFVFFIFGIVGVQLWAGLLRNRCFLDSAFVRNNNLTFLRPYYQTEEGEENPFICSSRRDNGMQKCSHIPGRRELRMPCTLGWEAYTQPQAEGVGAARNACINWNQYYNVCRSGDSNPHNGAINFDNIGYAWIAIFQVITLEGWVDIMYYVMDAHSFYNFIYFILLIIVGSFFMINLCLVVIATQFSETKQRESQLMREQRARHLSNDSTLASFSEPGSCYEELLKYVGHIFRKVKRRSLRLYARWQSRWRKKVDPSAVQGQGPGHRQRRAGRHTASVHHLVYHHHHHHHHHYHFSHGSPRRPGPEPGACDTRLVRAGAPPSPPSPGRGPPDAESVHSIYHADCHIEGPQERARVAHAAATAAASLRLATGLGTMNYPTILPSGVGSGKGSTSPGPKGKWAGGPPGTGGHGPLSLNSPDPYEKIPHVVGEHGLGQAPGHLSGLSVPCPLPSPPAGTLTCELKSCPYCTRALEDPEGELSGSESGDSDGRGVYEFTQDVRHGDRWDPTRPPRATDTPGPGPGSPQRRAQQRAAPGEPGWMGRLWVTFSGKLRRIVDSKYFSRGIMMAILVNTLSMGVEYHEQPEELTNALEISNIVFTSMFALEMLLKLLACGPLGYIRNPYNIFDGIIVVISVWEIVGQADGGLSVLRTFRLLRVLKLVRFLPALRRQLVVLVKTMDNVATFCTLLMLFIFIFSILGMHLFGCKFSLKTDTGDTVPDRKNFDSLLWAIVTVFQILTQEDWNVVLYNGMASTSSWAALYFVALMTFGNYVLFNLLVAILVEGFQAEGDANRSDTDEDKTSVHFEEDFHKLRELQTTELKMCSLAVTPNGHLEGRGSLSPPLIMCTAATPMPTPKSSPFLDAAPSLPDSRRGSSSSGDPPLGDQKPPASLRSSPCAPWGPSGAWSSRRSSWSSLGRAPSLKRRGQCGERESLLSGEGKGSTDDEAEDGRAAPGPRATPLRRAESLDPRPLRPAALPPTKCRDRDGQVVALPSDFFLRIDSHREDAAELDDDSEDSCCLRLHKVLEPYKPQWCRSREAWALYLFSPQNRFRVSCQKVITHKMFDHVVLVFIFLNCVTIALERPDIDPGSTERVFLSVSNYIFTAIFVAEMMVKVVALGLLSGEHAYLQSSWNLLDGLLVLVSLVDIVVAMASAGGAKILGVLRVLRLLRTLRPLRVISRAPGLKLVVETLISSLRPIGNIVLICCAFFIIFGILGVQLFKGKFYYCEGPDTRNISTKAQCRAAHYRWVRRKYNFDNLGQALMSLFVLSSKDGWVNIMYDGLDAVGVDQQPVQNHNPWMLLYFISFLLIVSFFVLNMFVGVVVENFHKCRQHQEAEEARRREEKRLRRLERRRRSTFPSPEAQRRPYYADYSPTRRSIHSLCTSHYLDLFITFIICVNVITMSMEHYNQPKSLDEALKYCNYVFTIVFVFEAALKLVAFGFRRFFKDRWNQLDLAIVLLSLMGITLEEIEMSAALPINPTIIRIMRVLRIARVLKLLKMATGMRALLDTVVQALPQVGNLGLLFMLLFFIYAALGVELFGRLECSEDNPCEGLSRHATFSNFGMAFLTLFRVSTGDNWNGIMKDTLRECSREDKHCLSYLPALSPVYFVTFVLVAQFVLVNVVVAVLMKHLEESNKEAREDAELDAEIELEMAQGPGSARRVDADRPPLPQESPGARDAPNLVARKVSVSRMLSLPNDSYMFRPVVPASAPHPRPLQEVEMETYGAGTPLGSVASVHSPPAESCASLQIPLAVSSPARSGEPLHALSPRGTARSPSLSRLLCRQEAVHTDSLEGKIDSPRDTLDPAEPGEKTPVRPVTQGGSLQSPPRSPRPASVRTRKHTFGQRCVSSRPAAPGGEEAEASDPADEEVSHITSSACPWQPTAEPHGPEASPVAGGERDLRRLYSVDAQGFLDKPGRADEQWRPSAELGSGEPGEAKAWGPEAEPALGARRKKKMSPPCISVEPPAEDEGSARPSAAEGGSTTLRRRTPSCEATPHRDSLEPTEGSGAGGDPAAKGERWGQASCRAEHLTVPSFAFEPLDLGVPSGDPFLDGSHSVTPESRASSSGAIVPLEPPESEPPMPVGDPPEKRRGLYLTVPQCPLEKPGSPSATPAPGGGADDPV

COc1ccc(C2C(C(=O)c3cccs3)=C(O)C(=O)N2c2nncs2)cc1 (stereo not given)
EC50 [1]: > 150 µM (inconclusive)
EC50 [2]: 0.549 µM (inconclusive)
EC50 [3]: > 79.4 µM (inactive)
EC50 [4]: > 79.4 µM (not active)
EC50 [5]: 0.1 µM (inconclusive)
EC50 [6]: > 38 µM (not active)
EC50 [7]: > 79.4 µM (not active)
AC50 (ORF 73): 7.29 µM (active)
AC50 [8]: 51.7 µM (active)
AC50 (Keap1/Nrf2): 20.3 µM (active)

COC(=O)Cn1cc(/C=C2\C(=O)NC(=O)N(c3ccccc3)C2=O)c2ccccc21
EC50 [2]: > 300 µM (inconclusive)
IC50 [9]: > 100 µM (inactive)
EC50 [10]: 7.64 µM (active)

O=C(CC1=NCCNC(c2ccccc2)C1)c1ccccc1O (stereo not given)
EC50 [11]: 69.3 µM (active)
EC50 [12]: 43.1 µM (active)
EC50 (H4): 67.6 µM (active)
EC50 (T-cell): 0.565 µM (active)

COc1cccc(NC(=O)c2ccnc(N3CCC(C(=O)NCc4cc(OC)ccc4OC)CC3)c2)c1
EC50 (Caspase-3): > 85.3 µM (inactive)
EC50 (Caspase-7): > 85.3 µM (inactive)

CN(Cc1ccccc1)C(=O)C1CCCN(Cc2ccc(Br)cc2)C1 (stereo not given)
AC50 [13]: 74.3 µM (active)
AC50 (Trypanosoma cruzi): 3.01 µM (active)

O=C(COc1ccc(Cl)cc1)Nc1nnc(-c2ccc(F)c(F)c2)o1
EC50 [14]: 1.5 µM (active)

O=C(CN1C(=O)c2ccccc2S1(=O)=O)N1CCN(c2ccccc2F)CC1
IC50 (Coagulation factor XII): > 50 µM (inactive)

O=C(NCc1ccc(Cl)cc1Cl)Nc1cncc(F)c1
EC50 [15]: 8.64 µM (active)

Fc1ccc(CSc2nnc(-c3ccccn3)n2Cc2cccs2)c(C(F)(F)F)c1
EC50 [16]: 2.26 µM (active)
EC50 (Mu-type opioid receptor): > 32 µM (inactive)
EC50 [17]: > 32 µM (inactive)
EC50 [18]: 4.46 µM (active)

Cc1cccc(NC(=O)CSc2ccc(-c3ccco3)nn2)c1C
IC50 [19]: 71.5 µM (active)
IC50 [20]: > 100 µM (inactive)
